This note sets out measurements from patent publication US20140221301A1, “COMBINATION TREATMENT FOR CANCER” (priority 2011, published 2014).

Structures are written as SMILES.

Format in all cases: cell-based, human
The test system of assay [1] is normal hematopoietic cells. Briefly: Methylcellulose colony formation assay, normal hematopoietic cells. The conditions noted are these: 5 μM, normal hematopoietic cells n=5, 14 days. Here is the method: FIG. 2. Tigecycline induces cell death and inhibits clonogenic growth in primary AML cells preferential over normal hematopoietic cells. Mononuclear cells from peripheral blood of leukemia patients (blast count>80%) and normal G-CSF expanded donors was treated with increasing concentrations of tigecycline for 48 hours. Cell viability was measured by Annexin-PI flow cytometry staining. Cell viability is expressed as a mean percentage plus or minus SD (n=3) relative to DMSO-treated cells. Mononuclear cells from primary AML patient samples (A, B) and normal peripheral blood cells (C) were plated in methylcelluose with 5 μM of Tigecycline. (D) Colony forming units were counted at 7 days (AML) and 14 days (Normal) post plating. […]
To assess clonogenic growth, primary AML cells (1.0×10^5/mL) or granulocyte colony-stimulating factor (G-CSF) mobilized PBSCs (1.0×10^5/mL) were plated in duplicate with increasing concentrations of tigecycline in MethoCult GF H4434 medium (StemCell Technologies, Vancouver, BC) containing 1% methycellulose in IMDM, 30% FCS, 1% bovine serum albumin, 3 U/mL of recombinant human erythropoietin, 10^−4 M of 2-mercaptoethanol, 2 mM of L-glutamine, 50 ng/mL of recombinant human stem cell factor, 10 ng/mL of GM-CSF, and 10 ng/mL of rh IL-3). Seven days (AML samples) or 14 days (normal PBCS) after plating, the number of colonies was counted as previously described^31.

Assay [2] relates to Cox-1, Cox-2, Cox-4 mRNA. Briefly: Quantitative RT-PCR of Cox mRNA. As to conditions: TEX and primary AML cells, 2.5 μM and 5 μM. Here is the method: FIG. 4. […] (A) Cells from TEX, OCI-AML2 and two primary AML patients were treated with increasing concentrations (2.5 μM and 5 μM) of tigecycline for 36 and 48 hours of tigecycline. Total proteins were extracted and analyzed by western blotting for Cox-1, Cox-2, Cox-4, grp78, XIAP, actin and tubulin. (B) TEX and AML patient cells were treated with increasing concentrations (2.5 μM and 5 μM) of tigecycline. Cox-1, Cox-2, and Cox-4 mRNA expression relative 18S was determined by quantitative RT-PCR. Data is shown as mean±SD. (C) TEX cells were treated with increasing concentrations of tigecycline and chloramphenicol (CAP) for 72 hours. Complex I, II and IV enzyme activity relative to citrate synthase activity was determined as described in materials and methods. (D) Cells from TEX, primary AML patients, and normal donors were treated with increasing concentrations of tigecycline. Mitochondrial membrane potential (ΔΨ) was determined by staining cells with JC-1 dye, and flow cytometry analysis (Red/Green ratio). Reactive oxygen species generation (ROS) was determined by staining with h2-DCFDA and Dihydroethidium (DHE).

Assay [3] concerns TEX cells and primary AML samples. Briefly: Mitochondrial membrane potential, JC-1, leukemia cells. As to conditions: 5 μM, times preceding onset of cell death. The method, then: FIG. 4. Tigecycline decreases mitochondrial Cox-1 protein levels in TEX cells. (A) Cells from TEX, OCI-AML2 and two primary AML patients were treated with increasing concentrations (2.5 μM and 5 μM) of tigecycline for 36 and 48 hours of tigecycline. Total proteins were extracted and analyzed by western blotting for Cox-1, Cox-2, Cox-4, grp78, XIAP, actin and tubulin. (B) TEX and AML patient cells were treated with increasing concentrations (2.5 μM and 5 μM) of tigecycline. Cox-1, Cox-2, and Cox-4 mRNA expression relative 18S was determined by quantitative RT-PCR. Data is shown as mean±SD. […] Complex I, II and IV enzyme activity relative to citrate synthase activity was determined as described in materials and methods. […] Mitochondrial membrane potential (ΔΨ) was determined by staining cells with JC-1 dye, and flow cytometry analysis (Red/Green ratio). Reactive oxygen species generation (ROS) was determined by staining with h2-DCFDA and Dihydroethidium (DHE).
To measure mitochondrial membrane potential, cells were treated with tigecycline similarly as described above and then washed twice with PBS and incubated with 5 μM of 5,5′,6,6′-tetrachloro-1,1′,3,3′-tetraethyl benzimidazolylcarbocyanine iodide (JC-1, Sigma-Aldrich) for 20 minutes at 37° C. Each sample was then washed twice with 1 mL PBS and resuspended in 500 μL PBS prior to being read on a BD FACSCalibur. […]

Take `CN(C)c1cc(NC(=O)CNC(C)(C)C)c(O)c2c1C[C@H]1C[C@H]3[C@H](N(C)C)C(O)=C(C(N)=O)C(=O)[C@@]3(O)C(O)=C1C2=O` [tigecycline]: the “reduction of clonogenic growth” value in assay [1] is 34±5%. Besides, the “mRNA expression of Cox-1, Cox-2 over Cox-4” value in assay [2] is “preferential increased mRNA expression”. Besides, in assay [3], the mitochondrial membrane potential entry was “decreased”.
